Test results reported in patent US20040043918A1, “Apoptosis inducers, caspase cascade activators and anticancer agent” (KIMIGAFUCHI GAKUEN, priority 2000, published 2004).

Key:
Type in all cases: cell-based
[1] = test system: human promyelocytes of leukemia (HL-60); experiment: Caspase-9 inhibition experiment using a flow cytometer (DNA fragmentation, PI dyeing)
Protocol: The following experiment was performed using the reagents prepared in section 1-1. First of all, multiple samples were prepared in stages wherein 0 to 120 μl of caspase-9 inhibitor was added to 12 ml of a suspension ([…]) of human promyelocytes of leukemia (HL-60, purchased from Riken Cell Bank). Then, the mixture were incubated for 90 minutes, 2 ml of liposome solution comprising dimyristoyl phosphatidylcholine was each added to the samples. Subsequently, each of the samples were incubated for three hours. After washing each sample with 2 ml of −PBS, 5 ml of 70% ethanol was added to each sample, and each sample was left at freezing temperature for one hour so as to be subjected to tissue-fixing. Furthermore, following washing each sample with 2 ml of −PSB, 6 ml of RNase solution was added to each sample, and subsequently, each sample was incubated for 30 minutes. Next, following adding 670 μl of PI solution, each sample was shielded from light with aluminum foil, and was left in a dark place at freezing temperature for 30 minutes, and was subjected to PI dyeing. After PI dyeing, each sample was subjected to centrifugal separation at 2000 rpm for five minutes. After removal of supernatant, and the precipitation formed was suspended in 500 μl of −PBS so as to measure DNA content using a flow cytometer (product name, COULTER EPICS-XL). Inhibition effects were evaluated by the ratios of the DNA fragmentation percentage of the control (wherein no caspase-9 inhibitor was added, and only a liposome solution comprising dimyristoyl phosphatidylcholine was added) to the DNA fragmentation percentages of the samples wherein caspase-9 inhibitor was added in stages.

[2] = test system: human promyelocytes of leukemia (HL-60); experiment: Procaspase-3 catabolic enzyme inhibition experiment using a flow cytometer; conditions: inhibitor preincubated, then DMPC liposome solution, FIG. 4
[3] = test system: human promyelocytes of leukemia (HL-60); experiment: Caspase-1,4 inhibition experiment using a flow cytometer; conditions: inhibitor preincubated, then DMPC liposome solution, FIG. 5
[4] = control without caspase-9 inhibitor, only DMPC liposome solution, three hours

CCCCCCCCCCCCCC(=O)OC[C@H](COP(=O)([O-])OCC[N+](C)(C)C)OC(=O)CCCCCCCCCCCCC [dimyristoyl phosphatidylcholine, 1,2-dimyristoyl-sn-glycero-3-phosphocholine]
DNA fragmentation of human promyelocytes of leukemia [1, 4]: clearly observed
apoptosis induction [1, 4]: apoptosis was induced

Ac—L-Ile-L-Glu-L-Thr-L-Asp-H [procaspase-3 catabolic enzyme inhibitor]
DNA fragmentation percentage with procaspase-3 catabolic enzyme inhibitor added in stages [2]: decreased approximately depending upon the concentration

Ac—L-Leu-L-Glu-L-His-L-Asp-H [caspase-9 inhibitor]
DNA fragmentation percentage with caspase-9 inhibitor added in stages ([1]; 0 to 120 μl inhibitor preincubated 90 minutes, then DMPC liposome solution for three hours, FIG. 3): decreased approximately depending upon the concentration

Ac—L-Tyr-L-Val-L-Ala-L-Asp-H [caspase-1,4 inhibitor]
DNA fragmentation percentage with caspase-1,4 inhibitor added in stages [3]: decreased approximately depending upon the concentration
